Experimental data taken from patent US6881741B2 (ViroChem Pharma Inc., priority 2001, dated 2005).
Where two headings read alike, the source gives them in different places.

How the values were obtained:
[1] = target: recombinant HCV NS5B (HCV RNA-dependent RNA polymerase) (Hepatitis C virus genotype 1b, UniProt P26663); assay: biochemical
[2] = target: T1, HCV NS3 enzyme (ATPase activity of HCV NS3 helicase) (Hepatitis C virus genotype 1b, UniProt P26663); assay: ATPase activity of HCV NS3 helicase, Malachite Green Assay; assay type: biochemical; conditions: free inorganic phosphate release, 30 min at 37 C, 200 μM ATP, 3 nM enzyme, read-out: Anti-ATPase (Malachite Green assay) EC50
Description: (§1) Evaluation of Analogues for measurement of ATPase activity of HCV NS3 helicase
The measurement of ATPase activity was performed by measuring the amount of free inorganic phosphate released during the conversion of ATP to ADP by the HCV NS3 ATPase activity. The assay is as follows: In a 96-well microtiter-plate, compounds were dissolved at various concentrations in a final volume of 25 μl of ATPase buffer containing 400 μM ATP. The enzymatic reaction was initiated by the addition of 25 μl of ATPase buffer containing 6 nM of HCV NS3 enzyme without ATP to the wells followed by an incubation of 30 min. at 37 C. Essentially, the final concentration of the ATPase buffer components are as follows: 44 mM MOPS pH 7.0, 8.8 mM NaCl, 2.2 mM MgCl2, 125 μg/ml poly A, 1% DMSO, 200 μM ATP, and 3 nM HCV NS3 enzyme. The reaction was stopped by the addition of 100 μl of Biomol Green™ reagent (BIOMOL® Research Laboratories Inc., Plymouth Meeting, Pa.). In order to allow the development of the green color, the plate was incubated for 15 min. at room temperature. Then the plate was read on a micro-plate reader at 620 nm. […] The signal recorded was also corrected from the background signal obtained with control samples with compound only. The IC50 was determined from dose-response curves using six to eight concentrations per compound. […]

[3] = target: T1, HCV NS3 enzyme (ATPase activity of HCV NS3 helicase); assay: ATPase activity of HCV NS3 helicase, HPLC Assay; assay type: biochemical; conditions: ADP produced measured by paired-ion HPLC, 1 nM enzyme, read-out: Anti-ATPase (HPLC method) EC50
Description: as §1
The measurement of HCV NS3 ATPase activity was performed by measuring the amount of ADP produced during the conversion of ATP to ADP by the HCV NS3 enzyme using paired-ion HPLC on a reverse phase column. […]. The mobile phase was an isocratic solution of 0.15 M triethylamine, 6% methanol, and phosphoric acid to pH 5.5. ADP and ATP peaks were resolved using the Aqua 5μ, C18, 125 Å, (150×4.6 mm) reverse phase column. The extent of ATP conversion to ADP was evaluated by measuring the area under the ADP peak produced which was detected at 259 nm. The amount of ADP was corrected for the presence of ADP contaminant in the original ATP solution. […] The IC50 was determined from dose-response curves using six to eight concentrations per compound. Curves were fitted to data points using a non-linear regression analysis, and IC50s were interpolated from the resulting curves using GraphPad Prism software, version 2.0 (GraphPad Software Inc, San Diego, Calif.).

[4] = HCV polymerase activity, list of compounds of Example 27, read-out: IC50 (polymerase activity)
[5] = related polymerase activity (Example 27 list), read-out: IC50

Chain of recombinant HCV NS5B (HCV RNA-dependent RNA polymerase) (P26663 2420-3010 limits assumed): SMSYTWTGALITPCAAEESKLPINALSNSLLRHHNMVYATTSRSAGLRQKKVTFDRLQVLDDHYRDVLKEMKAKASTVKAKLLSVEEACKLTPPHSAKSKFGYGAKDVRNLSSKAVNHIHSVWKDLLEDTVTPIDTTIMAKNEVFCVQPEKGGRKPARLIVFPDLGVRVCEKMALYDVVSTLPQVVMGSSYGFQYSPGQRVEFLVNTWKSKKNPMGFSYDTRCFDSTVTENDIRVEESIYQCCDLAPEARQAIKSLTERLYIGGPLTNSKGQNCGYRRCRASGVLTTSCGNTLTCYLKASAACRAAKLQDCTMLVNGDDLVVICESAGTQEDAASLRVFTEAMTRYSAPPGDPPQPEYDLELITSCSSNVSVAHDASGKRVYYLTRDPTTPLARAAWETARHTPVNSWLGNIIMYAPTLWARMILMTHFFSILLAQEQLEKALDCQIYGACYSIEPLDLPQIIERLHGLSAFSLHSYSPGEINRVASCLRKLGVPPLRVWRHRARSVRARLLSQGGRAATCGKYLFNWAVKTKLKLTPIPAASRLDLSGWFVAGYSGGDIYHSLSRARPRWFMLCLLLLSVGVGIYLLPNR
T1 sequence (P26663 1027-1657 limits assumed): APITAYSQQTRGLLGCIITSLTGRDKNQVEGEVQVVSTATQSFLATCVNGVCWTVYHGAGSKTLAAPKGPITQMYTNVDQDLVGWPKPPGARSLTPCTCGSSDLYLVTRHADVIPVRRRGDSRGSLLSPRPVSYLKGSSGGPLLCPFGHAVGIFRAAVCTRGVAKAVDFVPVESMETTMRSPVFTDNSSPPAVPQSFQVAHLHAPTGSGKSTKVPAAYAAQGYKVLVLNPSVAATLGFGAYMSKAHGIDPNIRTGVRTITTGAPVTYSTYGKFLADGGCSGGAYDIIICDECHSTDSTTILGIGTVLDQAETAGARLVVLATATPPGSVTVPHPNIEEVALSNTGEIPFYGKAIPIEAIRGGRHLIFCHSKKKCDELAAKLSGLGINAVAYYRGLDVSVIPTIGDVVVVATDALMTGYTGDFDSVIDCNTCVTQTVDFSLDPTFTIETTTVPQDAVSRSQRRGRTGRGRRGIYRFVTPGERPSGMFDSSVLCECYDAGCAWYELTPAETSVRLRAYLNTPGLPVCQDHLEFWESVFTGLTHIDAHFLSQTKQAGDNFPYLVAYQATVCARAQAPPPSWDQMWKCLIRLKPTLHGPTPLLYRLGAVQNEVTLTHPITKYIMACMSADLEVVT

Molecule COc1ccc(-c2cc(NS(=O)(=O)c3ccc(C)cc3)c(C(N)=O)s2)cc1 [Compound 565, 5-(4-METHOXY-PHENYL)-3-(TOLUENE-4- SULFONYLAMINO)-THIOPHENE-2- CARBOXYLIC ACID AMIDE] has an IC50 [1, 4] of 5 to 20 µM.

Cc1ccc(S(=O)(=O)Nc2cc(-c3ccccc3)sc2C(=O)NC2CCC2)cc1 [Compound 567, 5-PHENYL-3-(TOLUENE-4- SULFONYLAMINO)-THIOPHENE-2- CARBOXYLIC ACID CYCLOBUTYLAMIDE] showed an IC50 [1, 4] of 5 to 20 µM.

Cc1ccc(S(=O)(=O)Nc2cc(-c3ccccc3)sc2C(N)=O)c(C)c1 [Compound 568, 3-(2,4-DIMETHYL- BENZENESULFONYLAMINO)-5-PHENYL- THIOPHENE-2-CARBOXYLIC ACID AMIDE] showed an IC50 [1, 4] of 5 to 20 µM.

CC1CCC(C(=O)N(c2cc(-c3ccc(Cl)cc3)sc2C(=O)O)C(C)C)CC1 (centres unmarked) [Compound 570, 5-(4-CHLORO-PHENYL)-3-[ISOPROPYL-(4- METHYL-CYCLOHEXANECARBONYL)- AMINO]-THIOPHENE-2-CARBOXYLIC ACID] showed an IC50 [1, 4] of under 5 µM.

Work on CC(C)N(c1cc(-c2ccc(-c3ccc(Cl)cc3)cc2)sc1C(=O)O)C(=O)[C@H]1CC[C@H](C)CC1 [Compound 571, 5-(4′-CHLORO-BIPHENYL-4-YL)-3- [ISOPROPYL-(4-METHYL- CYCLOHEXANECARBONYL)-AMINO]- THIOPHENE-2-CARBOXYLIC ACID] yielded an IC50 [1, 4] of under 5 µM.

With CC1CCC(C(=O)N(c2cc(-c3ccccc3)sc2C(=O)O)C2CCOCC2)CC1 (centres unmarked) [Compound 572, 3-[(4-METHYL- CYCLOHEXANECARBONYL)- (TETRAHYDRO-PYRAN-4-YL)-AMINO]-5- PHENYL-THIOPHENE-2-CARBOXYLIC ACID] the IC50 [1, 4] was under 5 µM.

For CC1CCC(C(=O)N(c2cc(-c3ccc(C(F)(F)F)cc3)sc2C(=O)O)C(C)C)CC1 (centres unmarked) [Compound 575, 3-[ISOPROPYL-(4-METHYL- CYCLOHEXANECARBONYL)-AMINO]-5-(4- TRIFLUOROMETHYL-PHENYL)- THIOPHENE-2-CARBOXYLIC ACID], the IC50 [1, 4] was under 5 µM.

In the case of CC1CCC(C(=O)N(c2cc(-c3ccc(C#N)cc3)sc2C(=O)O)C(C)C)CC1 (centres unmarked) [Compound 576, 5-(4-CYANO-PHENYL-3-[ISOPROPYL-(4- METHYL-CYCLOHEXANECARBONYL)- AMINO]-THIOPHENE-2-CARBOXYLIC ACID], the IC50 [1, 4] is reported as under 5 µM.

Work on COc1ccc(-c2cc(N(C(=O)C3CCC(C)CC3)C(C)C)c(C(=O)O)s2)cc1 (centres unmarked) [Compound 577, 3-[ISOPROPYL-(4-METHYL- CYCLOHEXANECARBONYL)-AMINO]-5-(4- METHOXY-PHENYL)-THIOPHENE-2- CARBOXYLIC ACID] yielded an IC50 [1, 4] of under 5 µM.

For COCC(C)N(C(=O)C1CCC(C)CC1)c1cc(-c2ccccc2)sc1C(=O)O (centres unmarked) [Compound 578, 3-[(2-METHOXY-1-METHYL-ETHYL)-(4- METHYL-CYCLOHEXANECARBONYL)- AMINO]-5-PHENYL-THIOPHENE-2- CARBOXYLIC ACID], the IC50 [1, 4] was under 5 µM.

Work on CC1CCC(C(=O)N(c2cc(-c3ccccc3)sc2C(=O)O)C2CCCCC2)CC1 (centres unmarked) [Compound 579, 3-[CYCLOHEXYL-(4-METHYL- CYCLOHEXANECARBONYL)-AMINO]-5- PHENYL-THIOPHENE-2-CARBOXYLIC ACID] yielded an IC50 [1, 4] of under 5 µM.

Molecule Cc1cc(S(=O)(=O)Nc2cc(-c3ccccc3)sc2C(N)=O)c(C)cc1Cl [Compound 580, 3-(4-CHLORO-2,5 DIMETHYL- BENZENESULFONYLAMINO)-5-PHENYL- THIOPHENE-2-CARBOXYLIC ACID AMIDE] has an IC50 [1, 4] of under 5 µM.

With CC(C)N(C(=O)c1cc(-c2ccccc2)sc1C(=O)O)c1ccc(Cl)cc1Cl [Compound 583, 3-[(2,4-DICHLORO-PHENYL)-ISOPROPYL- CARBAMOYL]-5-PHENYL-THIOPHENE-2- CARBOXYLIC ACID] the IC50 [1, 4] was under 5 µM.

Molecule Cc1ccc(N(C)C(=O)c2cc(-c3ccccc3)sc2C(=O)O)cc1 [Compound 584, 3-(METHYL-P-TOLYL-CARBAMOYL)-5- PHENYL-THIOPHENE-2-CARBOXYLIC ACID] has an IC50 [1, 4] of 5 to 20 µM.

Molecule CN(C(=O)c1cc(-c2ccccc2)sc1C(=O)O)c1ccc(Cl)cc1Cl [Compound 585, 3-[(2,4-DICHLORO-PHENYL)-METHYL- CARBAMOYL]-5-PHENYL-THIOPHENE-2- CARBOXYLIC ACID] has an IC50 [1, 4] of 5 to 20 µM.

Cc1cc(S(=O)(=O)Nc2cc(-c3ccc(Cl)cc3)sc2C(=O)O)c(C)cc1Cl [Compound #14, 3-(4-Chloro-2,5-dimethyl-benzenesulfonylamino)-5-(4-chloro-phenyl)-thiophene-2-carboxylic acid] was tested, and the EC50 [2] was over 20 µM and the IC50 [1, 5] was under 5 µM.

Cc1cc(S(=O)(=O)Nc2cc(-c3ccc(CC(C)C)cc3)sc2C(=O)O)c(C)cc1Cl [Compound #19, 3-(4-Chloro-2,5-dimethyl-benzenesulfonylamino)-5-(4-isobutyl-phenyl)-thiophene-2-carboxylic acid] was tested, and the EC50 [2] was under 5 µM, the IC50 [1, 5] was 5 to 20 µM and the EC50 [3] was 5 to 20 µM.

Work on CC(C)Cc1ccc(-c2cc(NS(=O)(=O)c3ccc(Br)cc3F)c(C(=O)O)s2)cc1 [Compound #223, 3-(4-Bromo-2-fluorobenzenesulfonyl-amino)-5-(4-isobutylphenyl)-thiophene-2-carboxylic acid] yielded an IC50 [1, 5] of 5 to 20 µM and an EC50 [3] of under 5 µM.

Cc1cc(Br)ccc1S(=O)(=O)Nc1cc(-c2ccc(CC(C)C)cc2)sc1C(=O)O [Compound #224, 3-(4-Bromo-2-methylbenzenesulfonyl-amino)-5-(4-isobutylphenyl)-thiophene-2-carboxylic acid] was tested, and the IC50 [1, 5] was over 20 µM and the EC50 [3] was 5 to 20 µM.

COc1cccc(S(=O)(=O)Nc2cc(-c3ccc(CC(C)C)cc3)sc2C(=O)O)c1 [Compound #225] gave an IC50 [1, 5] of over 20 µM and an EC50 [3] of over 20 µM.

CC(C)Cc1ccc(-c2cc(NS(=O)(=O)c3cc(OCC(F)(F)F)ccc3OCC(F)(F)F)c(C(=O)O)s2)cc1 [Compound #227, 3-[2,5-Bis-(2,2,2-trifluoroethoxy)-benzenesulfonylamino]-5-(4-isobutyl-phenyl)-thiophene-2-carboxylic acid] was tested, and the IC50 [1, 5] was over 20 µM and the EC50 [3] was over 20 µM.

Molecule CC(C)Cc1ccc(-c2cc(NS(=O)(=O)c3ccc(C#N)cc3Cl)c(C(=O)O)s2)cc1 [Compound #228, 3-(2-Chloro-4-cyanobenzenesulfonyl-amino)-5-(4-isobutylphenyl)-thiophene-2-carboxylic acid] has an IC50 [1, 5] of over 20 µM and an EC50 [3] of over 20 µM.

Work on CC(C)Cc1ccc(-c2cc(NS(=O)(=O)c3ccc(-c4cc(C(F)(F)F)on4)s3)c(C(=O)O)s2)cc1 [Compound #581, 5-(4-Isobutyl-phenyl)-3-[5-(5-trifluoromethyl-isoxazol-3-yl)-thiophene-2-sulfonylamino]-thiophene-2-carboxylic acid] yielded an EC50 [3] of 5 to 20 µM.

In the case of CC(C)Cc1ccc(-c2cc(NS(=O)(=O)c3ccc(F)c(F)c3F)c(C(=O)O)s2)cc1 [Compound #582, 5-(4-Isobutyl-phenyl)-3-(2,3,4-trifluoro-benzenesulfonylamino)-thiophene-2-carboxylic acid], the EC50 [3] is reported as over 20 µM.
